Consider five compounds from patent US4349547A, “Suppressing obesity and over-secretion of insulin with 2-(α-hydroxy-m-trifluoromethylbenzyl)azetidine” (priority 1979, dated 1982).

Counter-ions that a name gives are not always drawn. Like-named read-outs stand apart in the source and are kept apart here.

A short description of one data set: Anorectic effect in mice. The format is in vivo, mouse (ICR). Particulars: 50 mg/kg oral gavage, control = 100. The procedure:
(a) Anorectic effect in mice
ICR mice, male and aged seven weeks (in groups of six individuals), which had been acclimatized to 6-hour/day feeding (CE-2 powder, commercial product of Clea Japan Ltd., Tokyo, Japan) for seven days were administered a dosage, by oral gavage, with a solution of 50 mg/kg of each test compound in 5% gum arabic at 0.5 hour before feeding on the eighth day, and the food intakes were compared with those of control mice given 5% gum arabic only. Each figure in the table is the percent food intake, with the corresponding figure for the control being 100.

Data set [1] is described as follows: Antiobesity action (general statement). The format is in vivo. Conditions: compared with (VII).
The conditions of data set [2]: in vivo.
Data set [3] can be described thus: Toxicity (general statement). Particulars: in vivo.
The nature of data set [4]: Estimation of LD50 in mice. Conditions: mouse, in vivo; oral; kept for seven days; Probit analysis. More on the design: species or system mouse (ICR). The method, then: (e) Estimation of LD50 in mice
ICR mice, male and aged nine weeks, were used without fasting. The mice (in groups of six individuals) were orally dosed with a solution of erythro-(I) hydrochloride (333, 500 and 750 mg/kg) or erythro-(VIII) hydrochloride (750, 1100 and 1700 mg/kg) in 5% gum arabic and kept for seven days. LD50 was calculated using the Probit analysis.

A further data set is described as follows: Anorectic effect in rats. The format is in vivo, rat (Sprague-Dawley). Conditions: Rattus norvegicus, oral gavage, 50% inhibition of food intake. The method, then: (b) Anorectic effect in rats
Sprague-Dawley (SD) rats, male and aged seven weeks, fasted for 24 hours (in groups of six individuals) were dosed, by oral gavage, with a solution of each test compound in 5% gum arabic, and feeding (CE-2 powder) was started at 0.5 hour after administration. The dose (ED50) which caused a 50% inhibition of food intake as compared with the control dosed with 5% gum arabic was determined.

The next data set relates to insulin secretion. In words: Suppression of insulin secretion (insulin area after glucose loading). The format is in vivo, rat (Fatty rats). Conditions: 50 mg/kg oral; glucose 3 g/kg after 30 minutes; blood at 30, 60 and 120 minutes; control 739. The procedure: (d) Suppression of insulin secretion
Fatty rats, female and aged 14 weeks, were used after fasting for 24 hours. The rats (in groups of five individuals) were orally dosed with a solution of 50 mg/kg of erythro-(I) hydrochloride in 5% gum arabic and, after 30 minutes, glucose (3 g/kg) was orally administered. At 30, 60 and 120 minutes after glucose loading, blood was withdrawn. The plasma samples were assayed for insulin and the insulin area was calculated.

The test system of data set [5] is biosynthesis of fatty acid. The data set can be described thus: Suppression of biosynthesis of fatty acid (incorporation of glucose-U-14C into liver and epididymal adipose tissue lipids). Particulars: Rattus norvegicus, 1 h, oral, 50% inhibition of glucose-U-14C incorporation, 60 minutes after glucose. The class given is in vivo, rat (SD). The method, then: (c) Suppression of biosynthesis of fatty acid
Male SD rats fasted for 24 hours, were orally dosed with erythro-(I) hydrochloride and after a lapse of 30 minutes, glucose-U-^14 C (140 μCi/2 g/kg) was orally administered. The animals were sacrificed after 60 minutes and the amounts of incorporation of glucose-U-^14 C into the liver and the epididymal adipose tissue lipids were determined to calculate the dose (ED50) which caused a 50% inhibition of glucose-U-^14 C incorporation, as compared to control rats, which had fasted, had not been so dosed, and had been orally administered with glucose-U-^14 C (140μCi/2 g/kg).

The mark [6] stands for this setting: 0.5 hour, read-out: ED50 0.5 hour after administration.
Where [7] appears, read: 1 hour, read-out: ED50 1 hour after administration.
Where [8] appears, read: 2 hours, read-out: ED50 2 hours after administration.

In the case of `O[C@@H](c1ccccc1)[C@@H]1CCN1` (relative stereo) [Threo-(VII) hydrochloride, 2-(α-hydroxybenzyl)azetidine, reference compound], in “Anorectic effect in mice”, the “Food intake (%) 0.5 hour after administration” value (from here on “Food intake (%) 0.5 hour”) is 70.0%, the “Food intake (%) 1 hour after administration” value (shortened to “Food intake (%) 1 hour”) came out at 89.3% and the “Food intake (%) 2 hours after administration” value (from here on “Food intake (%) 2 hours”) was 98.3%.
Take `OC(c1cccc(C(F)(F)F)c1)C1CCN1` (stereo not drawn) [Compound (I), 2-(α-hydroxy-m-trifluoromethylbenzyl)azetidine]: in data set [1], the antiobesity action entry was “very potent and long lasting antiobesity action, surpassing the action of (VII)”. Further, in data set [2], the “absorbability on oral administration” value is reported as “good absorbability on oral administration”. The toxicity entry in data set [3] was “low toxicity”.
`O[C@@H](c1ccccc1)[C@H]1CCN1` (relative stereo) [Erythro-(VII) hydrochloride, 2-(α-hydroxybenzyl)azetidine, reference compound]: in data set [4], the LD50 at 168 h was 902 mg/kg. Besides, the ED50 in “Anorectic effect in rats” (setting [6]) came out at 35 mg/kg; in the data set “Anorectic effect in rats” (setting [7]), 50 mg/kg; in the data set “Anorectic effect in rats” (setting [8]), 300 mg/kg.
On to `O[C@@H](c1cccc(C(F)(F)F)c1)[C@@H]1CCN1` (relative stereo) [Threo-(I) hydrochloride, Threo-2-(α-hydroxy-m-trifluoromethylbenzyl)azetidine hydrochloride], for which, in the data set “Anorectic effect in mice”, the “Food intake (%) 0.5 hour” value was 55.0%, the “Food intake (%) 1 hour” value is 72.0% and the “Food intake (%) 2 hours” value is listed as 84.8%.
As to `O[C@@H](c1cccc(C(F)(F)F)c1)[C@H]1CCN1` (relative stereo) [Erythro-(I) hydrochloride, erythro-2-(α-hydroxy-m-trifluoromethylbenzyl)azetidine hydrochloride], the LD50 at 168 h in data set [4] was 499 mg/kg. In the data set on insulin secretion, this compound displayed an Insulin area of 51 μU/ml.hr. For the same compound, the “Food intake (%) 0.5 hour” value in “Anorectic effect in mice” came out at 44.0%. Moreover, the “Food intake (%) 1 hour” value in “Anorectic effect in mice” worked out at 50.6%. Moreover, in “Anorectic effect in mice”, the “Food intake (%) 2 hours” value is 67.0%. Further, the ED50 stood at 20 mg/kg in the data set “Anorectic effect in rats” (setting [6]); 20 mg/kg in the data set “Anorectic effect in rats” (setting [7]); 25 mg/kg in “Anorectic effect in rats” (setting [8]); 20 mg/kg in data set [5] (epididymal adipose tissue lipids, read-out: Epididymal adipose tissue: ED50); 20 mg/kg in data set [5] (liver lipids, read-out: Liver: ED50).
